Data reported in patent US4870002A, “Method of prevention of oxidative injury to cells” (priority 1985, dated 1989).
Like-named read-outs stand apart in the source and are kept apart here.

Tests used:
[1] = tested on: Con A-Lu-BSA labeled pig RBCs; assay: Chemiluminescence of Con A-Lu-BSA labeled pig RBCs with exogenous hydrogen peroxide; format: cell-based
Description: The luminol-bovine serum albumin (Lu-BSA) complex was made by mixing 2 mg luminol (5-amino-2, 3-dihydrophthalazine-1,4-dione), 0.2 ml of 2 mg BSA/ml PBS (pH 6.9), and 1.6 ml of PBS, pH 6.9. The preparation was then passed through a 0.22 μm nitrocellulose filter to remove insoluble luminol. Next, 0.2 ml of 2 mg Con A/ml of PBS, pH 6.9, was added to the filtrate. After gentle mixing, 10 μl of 25% glutaraldehyde were added. The solution was incubated in the refrigerator for 1 hour. To stop the conjugation, 100 mg of glycine was added to the solution. The solution was then pressed through a 48 ml column of dextran gel filtration beads equilibrated with PBS, pH 6.9. The gel exclusion size was greater than 5000 for globular molecules. The fractions were collected and tested for luminescent labeling activity.
One ml of supernatant of each 10 ml aliquot of 1:20 diluted RBCs was replaced with 1 ml of Con A-Lu-BSA solution as previously described. The preparation was incubated for 15 min. at 37° C. in a water-jacketedcell culture incubator. The cells were then pelleted in a clinical centrifuge, resuspended in PBS, and washed in the same manner two additional times. The washed cells were maintained at 4° C. until used the same day of preparation.
Following exposure to chemical or physical stressors, 100 μl of the RBC suspension was added to 500 μl of PBS, pH 7.4, containing 0.3% hydrogen peroxide, in a scintillation vial. To activate the sample, 100 μl of 0.1N NaOH were added to the vial in place in an ATP photometer (Integrating ATP Photometer Model 3000, Science Applications, San Diego, California 92121) The photometer was set to a dark count of 1 count/30 second at a sensitivity of 600 at room temperature (approximately 23° C.). All counts followed a 5 second delay period to allow for stabilization of the photomultiplier. The counts are reported as counts/30 sec.
All essays were run at room temperature. The post-collection age of those cells was 11-18 days and the cells were used the day of labeling. […] Pyruvate (1.43 mM), an autoxidizable substrate, doubled the CL of labeled cells.

[2] = tested on: T cell (spleen) peroxidase; assay: Inhibition of T cell (spleen) peroxidase activity; format: biochemical
Novikoff hepatoma = assay: Effect of peroxidase inhibitor on ICCOPS-promoted hepatoma regression; format: in vivo, rat
Description: Four of the animals were also injected with 100 μg of 3-aminotyrosine.

[3] = tested on: L5178Y murine lymphosarcoma cells; assay: Growth curve after gamma irradiation (final/initial cell density); format: cell-based
Description: The cell density in a mass culture of thymidine hypoxanthine methotrexate glycine/thymidine hypoxanthine glycine (THMG/THG) treated L5178Y cells was determined by Coulter counter and the cells were diluted with fresh warm F10p medium to bring the cell density for treatment to 600,000 cells/ml. Volumes of 10 ml of cell suspension were distributed into three T-25 flasks, and 0.05 ml volumes of solutions of 3-aminotyrosine, as well as a 0.05 ml of distilled water used as a control, to provide a ratio of 5 microliters per 1 ml of cell suspension (a 1:200 dilution) in each flask. In these experiments, the cells were treated with chemical under reduced lighting, but not as totally light sensitive.
The cells were then reincubated for 10 minutes at 37° C. The flasks were then placed simultaneously in the chamber of the GammaCell 40 irradiator at room temperature. The dose rate for the Cesium-137 exposure was 121.6 rads/min. It has been determined that the temperature of water in a T-25 flask originally at 37° C. placed in the irradiation chamber decreases during an 8 min period to approximately 30° C. Flasks were removed after exposure of 0, 250 rads (2.5 Gy), 500 rads (5.0 Gy), and 1000 rads (10 Gy).
After the irradiation, the cells were centrifuged and the supernatant discarded. The cells were resuspended in F10p medium, and again centrifuged. The washing process was repeated and the cells were resuspended in 10 ml of complete medium and counted.
A growth curve study was performed in duplicate by initiating flasks with 60 ml of cell suspension at 20,000 cells per ml. The cells were incubated at 37° C. with continued rotation in 250 ml plastic Erlenmeyer flasks. The cell density was determined by Coulter counter on a daily basis over a 72 hour period.
THMG/THG treated L5178Y cells were mass cultured and the cell density determined. Aliquots of the cell suspension with enough cells to give 300,000 cells per ml in 60 ml (1.8×10^7 cells) were distributed into three 50 ml centrifuge tubes, and after centrifugation, the original growth medium was discarded. The cells were resuspended in GIBCO custom formulation medium which had been prepared without phenol red. The cells were then washed one more time by centrifugation and resuspended again in 10 ml of the phenol red-free medium. These 10 ml suspensions of cells containing 1.8×10^7 cells were then transferred into three flasks already containing 50 ml of phenol red-free medium, distilled water, and either 100 nanomoles/ml or 2 micromoles/ml solutions of 3-aminotyrosine. The exposure system was treated as light sensitive (i.e., procedures were performed under gold light or reduced lighting). The cells were then incubated in the dark at 37° C. for 16 hours. Immediately prior to the end of the 16 hours, the cell density was determined by Coulter counter.
At 16 hours, the cells were irradiated at 0, 250, 500, and 1000 rads as described above in the GammaCell irradiator at room temperature. Immediately after irradiation was completed, the cells were centrifuged, washed twice with F10p, and resuspended in 10 ml of F10p. The cell density was again determined by Coulter counter. Growth curve determinations with initial seeding at 20,000 cells per ml were performed for 72 hours as described above. Cell survival assay by soft agar colony formation was performed as described above, using 0.22% BBL agar (BBL Microbiology Systems) in place of the DIFCO agar previously employed. After 11 days incubation at 37° C., colonies were counted and cell survival was determined.

Nc1cc(C[C@H](N)C(=O)O)ccc1O [3-aminotyrosine, 3-amino-L-tyrosine]
CL (30 sec) ([1]; 160 μM): 5,430 ± 1,266 counts/30 sec
CL (30 sec) ([1]; 1.44 mM): 844 ± 165 counts/30 sec
activity at 160 µM ([1]; Sus scrofa, Erythrocyte, 160 μM, read-out: Percent control): 18%
activity at 1440 µM ([1]; Sus scrofa, Erythrocyte, 1.44 mM, read-out: Percent control): 3%
activity at 11500 µM ([1]; Sus scrofa, Erythrocyte, pretreatment 11.5 mM, 30 min at room temperature, read-out: Percent control): 74%
inhibition at 160 µM ([1]; Sus scrofa, 160 μM, read-out: inhibition of CL of labeled RBCs): 82%
inhibition at 1440 µM ([1]; Sus scrofa, 1.44 mM, read-out: inhibition of CL of labeled RBCs): 97%
inhibition at 1440 µM ([1]; Sus scrofa, 1.44 mM, read-out: inhibition of the natural CL): 94%
inhibition at 11500 µM ([1]; Sus scrofa, pretreatment of labeled cells with 11.5 mM, 30 min at room temperature, read-out: inhibition of CL): 26%
CL (30 sec) ([1]; pretreatment 11.5 mM, 30 min at room temperature): 22,457 ± 2,128 counts/30 sec
effect on T cell (spleen) peroxidase activity, in words [2]: inhibit
effect on the action of ICCOPS, in words (Novikoff hepatoma; 100 μg injected into ICCOPS-treated hepatoma-bearing rats): inhibited the action of ICCOPS
outcome, in words (Novikoff hepatoma; four rats receiving ICCOPS and 100 μg 3-aminotyrosine): eventually died of the tumor
Final Cell Density/Initial Cell Density ([3]; Sixteen hour incubation, 0 rads, 2 micromoles/ml): 71.4
Final Cell Density/Initial Cell Density ([3]; Sixteen hour incubation, 0 rads, 100 nanomoles/ml): 83.3
Final Cell Density/Initial Cell Density ([3]; Sixteen hour incubation, 250 rads, 2 micromoles/ml): 34.6
Final Cell Density/Initial Cell Density ([3]; Sixteen hour incubation, 250 rads, 100 nanomoles/ml): 50.5
Final Cell Density/Initial Cell Density ([3]; Sixteen hour incubation, 500 rads, 2 micromoles/ml): 6.1
Final Cell Density/Initial Cell Density ([3]; Sixteen hour incubation, 500 rads, 100 nanomoles/ml): 5.3
Final Cell Density/Initial Cell Density ([3]; Sixteen hour incubation, 1000 rads, 2 micromoles/ml): 1.1
Final Cell Density/Initial Cell Density ([3]; Sixteen hour incubation, 1000 rads, 100 nanomoles/ml): 1.3
Final Cell Density/Initial Cell Density ([3]; Zero hour incubation, 0 rads, 2 micromoles/ml): 25.0
Final Cell Density/Initial Cell Density ([3]; Zero hour incubation, 0 rads, 100 nanomoles/ml): 20.0
Final Cell Density/Initial Cell Density ([3]; Zero hour incubation, 250 rads, 2 micromoles/ml): 15.9
Final Cell Density/Initial Cell Density ([3]; Zero hour incubation, 250 rads, 100 nanomoles/ml): 14.1
Final Cell Density/Initial Cell Density ([3]; Zero hour incubation, 500 rads, 2 micromoles/ml): 7.7
Final Cell Density/Initial Cell Density ([3]; Zero hour incubation, 500 rads, 100 nanomoles/ml): 7.7
Final Cell Density/Initial Cell Density ([3]; Zero hour incubation, 1000 rads, 2 micromoles/ml): 2.2
Final Cell Density/Initial Cell Density ([3]; Zero hour incubation, 1000 rads, 100 nanomoles/ml): 2.2
